The values that follow are results of earlier work, collected in PMC4686915, “An engineered scorpion toxin analogue with improved Kv1.3 selectivity displays reduced conformational flexibility” (Scientific Reports, 2015).

Where two headings read alike, the source gives them in different places.

Data set [1] has as its target Kv1.2. From the text: (§1) Anuroctoxin (AnTx, αKTx 6.12) is a peptide toxin of 35 amino acids with a molecular weight of 4082.8, stabilized by four disulphide bridges, which was isolated by our workgroup from the venom of the scorpion Anuroctonus phaiodactylus. […] Our aim was to improve the selectivity of the wild-type toxin for Kv1.3 by site-directed changes in the primary sequence of the peptide. || Figure 1 Sequence comparison of Kv1.2- and Kv1.3-selective toxins. The aligned primary sequences are shown for toxins for which the affinities for both Kv1.2 and Kv1.3 channels were determined. Toxins were classified as Kv1.2-selective, non-selective or Kv1.3-selective based on the ratio of the determined Kd values for the two channels. TEXT PRINTED IN THE PICTURE: maurotoxin: KdKv1.2/KdKv1.3: 0.004; KdKv1.2 (nM): 0.8; KdKv1.3 (nM): 180; selectivity: Kv1.2 | CoTX1: KdKv1.2/KdKv1.3: 0.005; KdKv1.2 (nM): 27; K ... || First we aimed at reproducing the effects of natural anuroctoxin with the wild-type toxin produced by solid-state chemical synthesis, denoted as sAnTx. The blocking effect of sAnTx was first tested on Kv1.3 channels expressed by activated human lymphocytes. Channels were activated by depolarizing pulses to +50 mV to maximize the open probability and pulse duration was limited to 15 ms to minimize inactivation. The use of such short pulses prevented cumulative inactivation and allowed us to record the current amplitude every 15 s giving better temporal resolution of the kinetics of block develo ... || (+ 1 further places)

Data set [2] deals with T1, Kv1.3 (Homo sapiens, UniProt P22001). The arrangement: endogenous in cells. The settings on record: for selectivity class: Figure 1, based on ratio of Kd values for Kv1.2 and Kv1.3, ref not given; for block of Kv1.3, in words: toxins with tyrosine at the aromatic dyad position, ref 10 (ChTx), 13 (Css20), 32 (Tst26), 33 (noxiustoxin), 34 (hongotoxin-1), 30 (Pi1).
Text: as §1, with “(+ 3” for “(+ 1”

The target in data set [3] is Kv1.2 (Homo sapiens) (UniProt P16389).
The target of data set [4] is T1, Kv1.3.
Data set [5] concerns hKv1.2 V381H. From the text:
(§2) We first targeted the essential dyad to improve selectivity. […] While the necessity of the dyad lysine was shown for other Kv channels as well[10], the requirement for the aromatic half of the dyad, especially the tyrosine, is not as straightforward for blocking Kv1.3.

In data set [6] the test system is hKv1.3 H399T.
Text: as §2

The mark [7] stands for this setting: Figure 1 sequence comparison, literature toxins, ref not given, read-out: KdKv1.2.
[8] abbreviates: Figure 1 sequence comparison, literature toxins, ref not given.
Setting [9] is: Figure 1 sequence comparison, literature toxins, ref not given, read-out: KdKv1.3.

T1 sequence (P22001 whole entry): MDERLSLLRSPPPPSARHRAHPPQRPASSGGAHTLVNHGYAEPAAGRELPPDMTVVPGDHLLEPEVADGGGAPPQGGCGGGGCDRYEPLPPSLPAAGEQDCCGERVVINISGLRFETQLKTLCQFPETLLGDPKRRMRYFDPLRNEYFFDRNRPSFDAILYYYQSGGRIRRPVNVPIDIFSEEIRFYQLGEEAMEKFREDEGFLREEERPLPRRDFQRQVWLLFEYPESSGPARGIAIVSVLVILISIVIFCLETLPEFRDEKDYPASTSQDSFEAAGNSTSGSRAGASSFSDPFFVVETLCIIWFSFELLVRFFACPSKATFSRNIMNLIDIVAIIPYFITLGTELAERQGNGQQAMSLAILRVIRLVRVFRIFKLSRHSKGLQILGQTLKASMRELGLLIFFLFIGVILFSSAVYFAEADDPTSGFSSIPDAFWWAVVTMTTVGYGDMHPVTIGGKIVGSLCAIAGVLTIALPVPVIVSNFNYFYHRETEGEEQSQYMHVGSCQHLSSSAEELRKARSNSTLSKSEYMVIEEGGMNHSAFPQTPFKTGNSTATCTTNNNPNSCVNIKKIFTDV
Chain of anuroctoxin (P0C166 whole entry): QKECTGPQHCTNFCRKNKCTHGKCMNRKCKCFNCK
Chain of Kv1.2 (Homo sapiens) (P16389 whole entry): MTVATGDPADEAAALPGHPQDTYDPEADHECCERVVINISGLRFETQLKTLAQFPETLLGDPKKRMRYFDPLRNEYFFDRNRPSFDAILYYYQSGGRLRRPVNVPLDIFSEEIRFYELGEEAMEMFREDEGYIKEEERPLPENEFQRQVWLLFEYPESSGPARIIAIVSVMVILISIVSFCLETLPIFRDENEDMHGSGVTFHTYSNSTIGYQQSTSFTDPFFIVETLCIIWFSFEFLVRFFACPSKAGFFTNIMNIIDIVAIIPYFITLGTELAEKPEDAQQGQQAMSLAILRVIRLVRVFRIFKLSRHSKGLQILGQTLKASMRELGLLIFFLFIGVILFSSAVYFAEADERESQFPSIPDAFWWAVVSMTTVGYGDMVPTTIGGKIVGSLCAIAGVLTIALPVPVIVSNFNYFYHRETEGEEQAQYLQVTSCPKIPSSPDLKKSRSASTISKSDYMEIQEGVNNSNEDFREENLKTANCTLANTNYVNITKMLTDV

Hongotoxin-1: the Kd in data set [1] (setting [7]) is 0.17 nM. Further, in data set [2], the selectivity class entry was “non-selective (non-selective)” and the “block of Kv1.3, in words” value is recorded as “nanomolar range”. The KdKv1.2/KdKv1.3 in data set [2] (setting [8]) is 1.9. In data set [2] (setting [9]), the Kd is 0.09 nM.
Take “Noxiustoxin (TIINVKCTSPKQCSKPCKELYGSSAGAKCMNGKCKCYNN; UniProt P08815 1-39, looked up) [scorpion toxin]”: the Kd in data set [1] (setting [7]) was 2 nM. In data set [2], the selectivity class result is given as “non-selective (non-selective)” and the “block of Kv1.3, in words” value is listed as “nanomolar range”. Moreover, the KdKv1.2/KdKv1.3 in data set [2] (setting [8]) is 2. In addition, in data set [2] (setting [9]), the Kd was 1 nM.
For the substance anuroctoxin (from UniProt P0C166), the values for the Kd in data set [3] and in data set [4] were 6.14 nM and 0.73 nM, respectively.
With anuroctoxin [AnTx], the Kd in data set [1] (setting [7]) was 6 nM; in data set [1] (listed as natural toxin, read-out: Kd Kv1.2 of natural anuroctoxin), 6.1 nM; in data set [2] (listed as natural toxin, read-out: Kd Kv1.3 of natural anuroctoxin) it was 0.7 nM. In data set [2], the selectivity class result was “non-selective (non-selective)”. Further, in data set [2] (setting [8]), the KdKv1.2/KdKv1.3 was 9. Also, the “selectivity of the natural toxin for Kv1.3 over Kv1.2” value in data set [2] (natural toxin) is given as 9 fold.
With charybdotoxin [ChTx], the Kd in data set [1] (setting [7]) was 14 nM. Moreover, in data set [2], the selectivity class entry is given as “non-selective (non-selective)” and the “block of Kv1.3, in words” value was “nanomolar range”. Also, the KdKv1.2/KdKv1.3 in data set [2] (setting [8]) is reported as 5.4. Moreover, the Kd in data set [2] (setting [9]) is 2.6 nM.
Regarding kaliotoxin [KTX], the Kd in data set [1] (setting [7]) was above 1000 nM; in data set [2] (setting [9]), 0.65 nM. Besides, the selectivity class entry in data set [2] was “Kv1.3 (Kv1.3-selective)”. Moreover, the KdKv1.2/KdKv1.3 in data set [2] (setting [8]) was above 1538.
For the substance maurotoxin, the Kd in data set [1] (setting [7]) was 0.8 nM; in data set [2] (setting [9]), 180 nM. For the same substance, the “MTX binding affinity of hKv1.2 with V381H mutation” value in data set [5] is reported as “drastically reduced MTX binding affinity”. The “MTX sensitivity of Kv1.3 with H399T replacement” value in data set [6] is given as “made Kv1.3 sensitive to MTX”. In addition, the selectivity class result in data set [2] was “Kv1.2 (Kv1.2-selective)”. The KdKv1.2/KdKv1.3 in data set [2] (setting [8]) is on record as 0.004.
